What follows are molecules tested against MAPK14;MAPK11;MAPK12;MAPK13 (human) (UniProt Q16539) (assay: Assessment of Activity of MAPK11, MAPK12, MAPK13 and MAPK14 Kinases).

`Cc1ccc(C(=O)NC2CC2)cc1Oc1cc(=O)n(C)c2c1cnn2-c1cccc(F)c1` and `Cc1ccc(C(=O)NC2CC2)cc1Oc1cc(=O)n(C)c2c1cnn2-c1ccc(F)cc1F` cannot be ordered by IC50: less than 25 nM for the first, less than 25 nM for the second.

`CCn1c(=O)cc(Oc2cc(C(=O)NC3CC3)ccc2C)c2cnn(-c3ccc(F)cc3)c21` and `CCn1c(=O)cc(Nc2cc(C(=O)NC3CC3)ccc2C)c2cnn(-c3ccc(F)cc3)c21` cannot be ordered by IC50: less than 25 nM for the first, less than 25 nM for the second.

`CCn1c(=O)cc(Nc2cc(C(=O)NC3CC3)ccc2Cl)c2cnn(-c3ccc(F)cc3F)c21` and `Cn1c(=O)cc(Nc2cc(C(=O)NC3CC3)ccc2Cl)c2cnn(-c3cc(F)ccc3F)c21` cannot be ordered by IC50: 1.2 nM for the first, less than 25 nM for the second.

`Cc1ccc(C(=O)NC2CC2)cc1Oc1cc(=O)n(C)c2c1cnn2-c1c(F)cccc1F` and `Cc1ccc(C(=O)NC2CC2)cc1Oc1cc(=O)n(C)c2c1cnn2-c1cc(F)ccc1F` cannot be ordered by IC50: less than 25 nM for the first, less than 25 nM for the second.

`CONC(=O)c1ccc(C)c(Nc2cc(=O)n(C)c3c2cnn3-c2ccc(F)cc2F)c1` and `Cc1ccc(C(N)=O)cc1Nc1cc(=O)n(C)c2c1cnn2-c1ccc(F)cc1F` cannot be ordered by IC50: 1.6 nM for the first, less than 25 nM for the second.

`Cc1ccc(C(=O)NC2CC2)cc1Nc1cc(=O)n(C)c2c1cnn2-c1cccc(F)c1` and `Cc1ccc(C(=O)NC2CC2)cc1Nc1cc(=O)n(C)c2c1cnn2-c1cc(F)ccc1F` cannot be ordered by IC50: less than 25 nM for the first, less than 25 nM for the second.

`CCn1c(=O)cc(Nc2cc(C(=O)NC3CC3)ccc2Cl)c2cnn(-c3ccc(F)cc3)c21` and `Cn1c(=O)cc(Nc2cc(C(=O)NC3CC3)ccc2Cl)c2cnn(-c3ccc(F)cc3)c21` are within 1.5-fold of each other in IC50: 1.7 nM for the first, 2.1 nM for the second.

`Cc1ccc(C(N)=O)cc1Nc1cc(=O)n(C)c2c1cnn2-c1cc(F)ccc1F` and `Cn1c(=O)cc(Nc2cc(C(=O)NC3CC3)ccc2F)c2cnn(-c3ccc(F)cc3F)c21` cannot be ordered by IC50: less than 25 nM for the first, less than 25 nM for the second.

`Cc1ccc(C(=O)NC2CC2)cc1Nc1cc(=O)n(C)c2c1cnn2-c1c(F)cccc1F` and `Cn1c(=O)cc(Nc2cc(C(=O)NC3CC3)ccc2Cl)c2cnn(-c3c(F)cccc3F)c21` cannot be ordered by IC50: less than 25 nM for the first, less than 25 nM for the second.

Reference: the Kinase Knowledgebase extract (Sharma et al. 2016)
